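Each compound was tested at five concentrations against cells in 96-well plates for 48 hours. The concentration for 50% growth inhibition is given as GI50.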 Activity calls are given as the source filed them. Rule as the data show it: active = GI50 up to about 1.1 µM and inactive = higher.
Key:
Assay in all cases: inhibition of tumour cell growth, NCI panel, 48 h
ACHN = test system: ACHN
HCC 2998 = test system: HCC 2998
HOP-62 = test system: HOP-62
HOP-92 = test system: HOP-92
IGROV-1 = test system: IGROV-1
LOX IMVI = test system: LOX IMVI
M14 = test system: M14
NCI-H23 = test system: NCI-H23
OVCAR-3 = test system: OVCAR-3
OVCAR-4 = test system: OVCAR-4
OVCAR-5 = test system: OVCAR-5
RXF 393 = test system: RXF 393
SF-295 = test system: SF-295
SK-MEL-5 = test system: SK-MEL-5
SNB-19 = test system: SNB-19
SW-620 = test system: SW-620
NCI-H522 = test system: NCI-H522

Measured: GI50

CCOC(=O)C12CN(C34CC5CC(CC(C5)C3)C4)CC(C(=O)OCC)(C1=O)C(c1ccccc1)OC2c1ccccc1 (configuration not stated)
inactive: ACHN > 100 µM | HCC 2998 > 100 µM | HOP-62 > 100 µM | HOP-92 2.04 µM | IGROV-1 > 100 µM | LOX IMVI 3.54 µM | M14 > 100 µM | NCI-H23 47.4 µM | OVCAR-3 > 100 µM | OVCAR-4 23 µM | OVCAR-5 > 100 µM | RXF 393 19.4 µM | SF-295 > 100 µM | SK-MEL-5 94.8 µM | SNB-19 > 100 µM | SW-620 > 100 µM

CCOC(=O)C(C(CC(=O)OC)NC(=O)OCc1ccccc1)C1(C)OCCO1 (configuration not stated)
inactive: ACHN > 100 µM | HCC 2998 > 100 µM | HOP-62 > 100 µM | IGROV-1 > 100 µM | LOX IMVI > 100 µM | M14 > 100 µM | NCI-H23 > 100 µM | OVCAR-3 > 100 µM | OVCAR-4 > 100 µM | RXF 393 > 100 µM | SF-295 > 100 µM | SK-MEL-5 > 100 µM | SNB-19 > 100 µM | SW-620 > 100 µM

Cc1c(-c2coc(-c3ccc([N+](=O)[O-])cc3)n2)c(=O)n(-c2ccccc2)n1C
inactive: ACHN > 100 µM | HCC 2998 > 100 µM | HOP-62 > 100 µM | HOP-92 > 100 µM | IGROV-1 > 100 µM | LOX IMVI > 100 µM | M14 > 100 µM | NCI-H23 > 100 µM | NCI-H522 > 100 µM | OVCAR-3 > 100 µM | OVCAR-4 > 100 µM | OVCAR-5 > 100 µM | SF-295 > 100 µM | SK-MEL-5 > 100 µM

O=C(c1ccccc1)C1S(=O)(=O)OCCOS1(=O)=O
inactive: HCC 2998 > 100 µM | HOP-62 > 100 µM | HOP-92 > 100 µM | IGROV-1 > 100 µM | LOX IMVI > 100 µM | M14 > 100 µM | NCI-H23 > 100 µM | NCI-H522 > 100 µM | OVCAR-3 > 100 µM | OVCAR-4 > 100 µM | SF-295 > 100 µM | SK-MEL-5 > 100 µM | SNB-19 > 100 µM | SW-620 > 100 µM

CC(=O)OCCOCBr
inactive: ACHN > 100 µM | HOP-62 > 100 µM | HOP-92 > 100 µM | IGROV-1 > 100 µM | LOX IMVI > 100 µM | M14 > 100 µM | NCI-H522 > 100 µM | OVCAR-3 > 100 µM | OVCAR-4 > 100 µM | OVCAR-5 > 100 µM | RXF 393 > 100 µM | SF-295 > 100 µM | SK-MEL-5 > 100 µM | SW-620 > 100 µM

COc1ccccc1NC(=O)CC(=O)n1nc(C)c(/N=N/c2ccccc2C(=O)O)c1C
inactive: HCC 2998 > 100 µM | HOP-62 85.9 µM | IGROV-1 > 100 µM | LOX IMVI > 100 µM | M14 > 100 µM | NCI-H23 88.9 µM | NCI-H522 43.9 µM | OVCAR-3 73.1 µM | OVCAR-4 > 100 µM | OVCAR-5 > 100 µM | SF-295 > 100 µM | SK-MEL-5 68.1 µM | SNB-19 > 100 µM | SW-620 > 100 µM

O=C1C2c3[nH]c4ccccc4c3C3CCCCCCC3C2C(=O)N1c1ccccc1 (configuration not stated)
inactive: ACHN 8.24 µM | HCC 2998 12.3 µM | IGROV-1 > 10 µM | LOX IMVI 5 µM | M14 6.85 µM | NCI-H23 21 µM | OVCAR-3 4.35 µM | OVCAR-4 3.87 µM | RXF 393 7.74 µM | SF-295 2.91 µM | SK-MEL-5 33 µM | SW-620 8.61 µM

Cc1ccc(/C=N/NS(=O)(=O)c2ccccc2)cc1C
inactive: ACHN > 100 µM | HCC 2998 > 100 µM | HOP-62 > 100 µM | HOP-92 > 100 µM | IGROV-1 51.5 µM | LOX IMVI 88.1 µM | M14 > 100 µM | NCI-H23 > 100 µM | OVCAR-3 > 100 µM | OVCAR-4 > 100 µM | OVCAR-5 > 100 µM | RXF 393 > 100 µM | SF-295 45.7 µM | SK-MEL-5 > 100 µM | SW-620 > 100 µM

CC(=O)OCCC(O[Si](c1ccccc1)(c1ccccc1)C(C)(C)C)C(C)(C)O (configuration not stated)
inactive: ACHN 29.4 µM | HOP-92 24.6 µM | IGROV-1 36.3 µM | LOX IMVI 24 µM | M14 39 µM | NCI-H23 24.7 µM | NCI-H522 20 µM | OVCAR-3 21 µM | OVCAR-4 64.1 µM | OVCAR-5 > 100 µM | RXF 393 17.6 µM | SF-295 21.6 µM | SK-MEL-5 51.6 µM | SNB-19 63.1 µM | SW-620 54.8 µM

CCCCCOCC(O)CO (configuration not stated)
inactive: ACHN > 100 µM | HOP-62 > 100 µM | HOP-92 > 100 µM | IGROV-1 > 100 µM | LOX IMVI > 100 µM | NCI-H23 > 100 µM | OVCAR-3 > 100 µM | OVCAR-4 > 100 µM | OVCAR-5 > 100 µM | RXF 393 > 100 µM | SF-295 > 100 µM | SK-MEL-5 > 100 µM | SNB-19 > 100 µM | SW-620 > 100 µM

O=C(CC1(O)C(=O)Nc2ccccc21)c1ccc(Cl)cc1Cl (configuration not stated)
inactive: ACHN > 100 µM | HOP-92 > 100 µM | IGROV-1 > 100 µM | LOX IMVI > 100 µM | M14 > 100 µM | NCI-H23 > 100 µM | NCI-H522 > 100 µM | OVCAR-3 > 100 µM | OVCAR-4 > 100 µM | OVCAR-5 > 100 µM | RXF 393 > 100 µM | SF-295 > 100 µM | SK-MEL-5 > 100 µM | SNB-19 > 100 µM | SW-620 > 100 µM

N#CC(C(=O)CCC(=O)Nc1ccc(Cl)c(Cl)c1)c1ccc(Cl)cc1 (configuration not stated)
inactive: ACHN 17.4 µM | HCC 2998 > 100 µM | HOP-62 > 100 µM | HOP-92 80.9 µM | IGROV-1 80 µM | LOX IMVI > 100 µM | M14 51.4 µM | NCI-H23 > 100 µM | OVCAR-3 > 100 µM | OVCAR-4 > 100 µM | OVCAR-5 23.9 µM | RXF 393 > 100 µM | SF-295 69.5 µM | SK-MEL-5 65.6 µM | SNB-19 > 100 µM | SW-620 > 100 µM

O=C1C2CCC(C2)C12CC1(c3ccccc3)C(=O)c3ccccc3N1O2 (configuration not stated)
inactive: ACHN > 100 µM | HCC 2998 > 100 µM | HOP-62 > 100 µM | HOP-92 42.7 µM | IGROV-1 > 100 µM | M14 > 100 µM | NCI-H23 > 100 µM | NCI-H522 > 100 µM | OVCAR-4 75.5 µM | RXF 393 > 100 µM | SF-295 94.6 µM | SK-MEL-5 > 100 µM | SNB-19 > 100 µM | SW-620 > 100 µM

C[C@@H](NC1CCCC[C@@H]1O)c1ccccc1 (some centres not stated)
inactive: ACHN > 100 µM | HCC 2998 > 100 µM | HOP-62 > 100 µM | HOP-92 > 100 µM | IGROV-1 > 100 µM | LOX IMVI > 100 µM | M14 > 100 µM | OVCAR-3 > 100 µM | OVCAR-4 > 100 µM | OVCAR-5 > 100 µM | RXF 393 > 100 µM | SF-295 > 100 µM | SK-MEL-5 > 100 µM | SNB-19 > 100 µM | SW-620 > 100 µM

Source: ChEMBL document CHEMBL1201862, “PubChem BioAssay data set” (2004)
